Data taken from patent US20230055237A1, “COMPOUNDS AND METHODS FOR THE TREATMENT OF CYSTIC FIBROSIS” (Flatley Discovery Lab, LLC, priority 2019, published 2023).

Molecular target: T1, CFTR (Homo sapiens, UniProt P13569, DEL508-508)
T1 construct: Primary CF airway epithelial cells were obtained from the UNC Cystic Fibrosis Tissue Procurement and Cell Culture Core; host or cells: primary CF airway epithelial cells, differentiated at the air-liquid interface
Experiment: Equivalent current assay in primary CF airway epithelial cells (NAUC, combination with 1st site corrector FDL169 or VX-809)
Assay type: cell-based
Settings: 37° C., 24 h

[1] = test compound 1 μM in combination with 1st site corrector VX-809 (3 μM)
[2] = test compound 3 μM in combination with 1st site corrector VX-809 (3 μM)
[3] = test compound 10 μM in combination with 1st site corrector VX-809 (3 μM)
[4] = test compound 1 μM in combination with 1st site corrector FDL169 (3 μM)
[5] = test compound 3 μM in combination with 1st site corrector FDL169 (3 μM)
[6] = test compound 10 μM in combination with 1st site corrector FDL169 (3 μM)

T1 sequence (P13569 with tags, fused parts or gaps DEL508-508): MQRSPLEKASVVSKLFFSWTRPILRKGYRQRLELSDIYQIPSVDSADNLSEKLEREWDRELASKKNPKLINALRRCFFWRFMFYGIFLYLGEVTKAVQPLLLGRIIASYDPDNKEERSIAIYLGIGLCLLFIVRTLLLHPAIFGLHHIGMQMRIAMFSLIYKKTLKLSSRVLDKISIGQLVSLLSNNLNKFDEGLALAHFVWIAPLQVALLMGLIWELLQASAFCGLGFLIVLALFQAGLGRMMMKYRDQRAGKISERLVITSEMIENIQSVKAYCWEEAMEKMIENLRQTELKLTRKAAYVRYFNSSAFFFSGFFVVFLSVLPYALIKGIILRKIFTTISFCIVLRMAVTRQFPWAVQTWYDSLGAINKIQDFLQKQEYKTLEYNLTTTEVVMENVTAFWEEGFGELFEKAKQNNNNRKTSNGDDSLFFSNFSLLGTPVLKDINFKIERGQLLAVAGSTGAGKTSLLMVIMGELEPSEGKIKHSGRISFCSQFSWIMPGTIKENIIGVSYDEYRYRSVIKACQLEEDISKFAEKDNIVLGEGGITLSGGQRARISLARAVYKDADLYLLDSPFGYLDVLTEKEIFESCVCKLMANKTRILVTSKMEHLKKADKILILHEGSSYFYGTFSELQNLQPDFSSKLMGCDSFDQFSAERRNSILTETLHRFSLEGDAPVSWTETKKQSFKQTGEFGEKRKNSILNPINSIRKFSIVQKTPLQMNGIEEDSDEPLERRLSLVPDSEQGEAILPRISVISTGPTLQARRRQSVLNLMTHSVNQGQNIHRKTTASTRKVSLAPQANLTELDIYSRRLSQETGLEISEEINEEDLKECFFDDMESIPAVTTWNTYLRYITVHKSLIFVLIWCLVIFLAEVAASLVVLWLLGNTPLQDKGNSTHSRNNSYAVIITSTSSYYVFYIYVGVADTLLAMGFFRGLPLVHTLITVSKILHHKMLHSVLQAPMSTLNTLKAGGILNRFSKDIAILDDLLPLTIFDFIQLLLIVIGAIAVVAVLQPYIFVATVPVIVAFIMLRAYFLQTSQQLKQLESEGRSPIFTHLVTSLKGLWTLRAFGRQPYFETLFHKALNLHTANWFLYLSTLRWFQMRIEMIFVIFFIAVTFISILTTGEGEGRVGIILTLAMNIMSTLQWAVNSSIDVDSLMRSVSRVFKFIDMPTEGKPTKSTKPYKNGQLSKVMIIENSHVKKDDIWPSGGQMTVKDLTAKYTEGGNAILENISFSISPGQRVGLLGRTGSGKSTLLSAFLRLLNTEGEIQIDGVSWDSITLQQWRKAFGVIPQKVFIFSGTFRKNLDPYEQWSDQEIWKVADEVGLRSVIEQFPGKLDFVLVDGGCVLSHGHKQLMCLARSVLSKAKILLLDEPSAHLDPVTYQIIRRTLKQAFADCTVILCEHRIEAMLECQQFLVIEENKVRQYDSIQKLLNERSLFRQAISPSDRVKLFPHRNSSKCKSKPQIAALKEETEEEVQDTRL

| Compound | Nauc @ 1 μM [1] | Nauc @ 3 μM [2] | Nauc @ 10 μM [3] | Nauc @ 1 μM [4] | Nauc @ 3 μM [5] | Nauc @ 10 μM [6] |
| --- | --- | --- | --- | --- | --- | --- |
| COc1cc(C(F)(F)F)cc(NC(=O)C2C3CC(F)(F)CN3C3(C(=O)Nc4c(Cl)cc(Cl)cc43)C2C(=O)O)n1 (single isomer, unassigned) [Example 80.7a.2, 5,7-dichloro-6′,6′-difluoro-1′-((6-methoxy-4-(trifluoromethyl)pyridin-2-yl)carbamoyl)-2-oxo-1′,2′,5′,6′,7′,7a′-hexahydrospiro[indoline-3,3′-pyrrolizine]-2′-carboxylic acid] | + (NAUC “+” refers to an observed NAUC <140% of positive control) | +++ (NAUC “+++” refers to an observed NAUC>170% of positive control) | +++ (NAUC “+++” refers to an observed NAUC>170% of positive control) |  |  |  |
| CC(C)(C)c1cccc(CCNC(=O)C2C3CCCN3C3(C(=O)Nc4c(Cl)cc(Cl)cc43)C2C(=O)O)c1 (centres unmarked) [Example 53] |  | +++ (NAUC “+++” refers to an observed NAUC>170% of positive control) | +++ (NAUC “+++” refers to an observed NAUC>170% of positive control) |  |  |  |
| O=C(Nc1cc(Cl)cc(Cl)c1)C1C(C(F)(F)c2ccccn2)NC2(C(=O)Nc3c(Cl)cc(Cl)cc32)C1C(=O)O (centres unmarked) [Example 72.c] |  |  | ++ (NAUC “++” refers to an observed NAUC 170-140% of positive control) |  |  |  |
| O=C(Nc1cc(Cl)cc(Cl)c1)C1CN(CC(F)(F)F)C2(C(=O)Nc3c(Cl)cc(Cl)cc32)C1C(=O)O (centres unmarked) [Example 79b] | + (NAUC “+” refers to an observed NAUC <140% of positive control) | + (NAUC “+” refers to an observed NAUC <140% of positive control) | ++ (NAUC “++” refers to an observed NAUC 170-140% of positive control) |  |  |  |
| O=C(Nc1cc(C(F)(F)F)cc(C(F)(F)F)n1)C1C2C[C@@](O)(C(F)(F)F)CN2C2(C(=O)Nc3c(Cl)cc(Cl)cc32)C1C(=O)O (some centres unmarked) [Example 55] |  | ++ (NAUC “++” refers to an observed NAUC 170-140% of positive control) | + (NAUC “+” refers to an observed NAUC <140% of positive control) |  |  |  |
| O=C(Nc1cnc(-c2ccccc2)cn1)[C@H]1[C@H]2CC(F)(F)CN2[C@]2(C(=O)Nc3c(Cl)cc(Cl)cc32)[C@H]1C(=O)O [Example 134] | + (NAUC “+” refers to an observed NAUC <140% of positive control) | + (NAUC “+” refers to an observed NAUC <140% of positive control) |  |  |  |  |
| CONC(=O)[C@H]1[C@@H](C(=O)Nc2cc(Cl)cc(Cl)c2)[C@H]2C[C@](C)(O)CN2[C@]12C(=O)Nc1c(Cl)cc(Cl)cc12 [Example 246, (1′R,2′S,6′S,7a′R)-5,7-dichloro-N1′-(3,5-dichlorophenyl)-6′-hydroxy-N2′-methoxy-6′-methyl-2-oxo-1′,2′,5′,6′,7′,7a′-hexahydrospiro[indoline-3,3′-pyrrolizine]-1′,2′-dicarboxamide] | + (NAUC “+” refers to an observed NAUC <140% of positive control) | + (NAUC “+” refers to an observed NAUC <140% of positive control) | +++ (NAUC “+++” refers to an observed NAUC>170% of positive control) |  |  |  |
| CC(C)(C)c1ccc(CCNC(=O)C2C3CC(F)(F)CN3C3(C(=O)Nc4c(Cl)cc(Cl)cc43)C2C(=O)O)cc1 (centres unmarked) [Example 46] |  | +++ (NAUC “+++” refers to an observed NAUC>170% of positive control) | +++ (NAUC “+++” refers to an observed NAUC>170% of positive control) |  |  |  |
| CC(C)(C)C(C)(C)CN(C(=O)[C@H]1[C@H]2C[C@](C)(OCc3ccccc3)CN2[C@]2(C(=O)Nc3c(Cl)cc(Cl)cc32)[C@H]1C(=O)O)c1cc(Cl)cc(Cl)c1 [Example 95] |  |  |  | +++ (NAUC “+++” refers to an observed NAUC>170% of positive control) | +++ (NAUC “+++” refers to an observed NAUC>170% of positive control) | +++ (NAUC “+++” refers to an observed NAUC>170% of positive control) |
| O=C(Nc1cc(Cl)cc(Cl)c1)C1C(C(F)(F)c2cccc(C(F)(F)F)c2)NC2(C(=O)Nc3c(Cl)cc(Cl)cc32)C1C(=O)O (centres unmarked) [Example 70.c] | + (NAUC “+” refers to an observed NAUC <140% of positive control) | + (NAUC “+” refers to an observed NAUC <140% of positive control) | +++ (NAUC “+++” refers to an observed NAUC>170% of positive control) |  |  |  |
| CCCN(C(=O)[C@H]1[C@H]2CC(F)(F)CN2[C@]2(C(=O)Nc3c(Cl)cc(Cl)cc32)[C@H]1C(=O)O)c1cc(Cl)cc(Cl)c1 [Example 172] |  |  |  | +++ (NAUC “+++” refers to an observed NAUC>170% of positive control) | +++ (NAUC “+++” refers to an observed NAUC>170% of positive control) | +++ (NAUC “+++” refers to an observed NAUC>170% of positive control) |
| CC(C)N(C(=O)[C@H]1[C@H]2CC(F)(F)CN2[C@]2(C(=O)Nc3c(Cl)cc(Cl)cc32)[C@H]1C(=O)O)c1cc(Cl)cc(Cl)c1 [Example 174] |  |  |  | +++ (NAUC “+++” refers to an observed NAUC>170% of positive control) | +++ (NAUC “+++” refers to an observed NAUC>170% of positive control) | +++ (NAUC “+++” refers to an observed NAUC>170% of positive control) |
| O=C(O)[C@H]1[C@@H](C(=O)N(c2cc(Cl)cc(Cl)c2)C2CCC2)[C@H]2CC(F)(F)CN2[C@]12C(=O)Nc1c(Cl)cc(Cl)cc12 [Example 152] |  |  |  | +++ (NAUC “+++” refers to an observed NAUC>170% of positive control) | +++ (NAUC “+++” refers to an observed NAUC>170% of positive control) | ++ (NAUC “++” refers to an observed NAUC 170-140% of positive control) |
| CC(C)(C)c1cccc(C2(CNC(=O)[C@H]3[C@H]4CC(F)(F)CN4C4(C(=O)Nc5c(Cl)cc(Cl)cc54)[C@H]3C(=O)O)CC2)c1 (some centres unmarked) [Example 294] | + (NAUC “+” refers to an observed NAUC <140% of positive control) | +++ (NAUC “+++” refers to an observed NAUC>170% of positive control) | +++ (NAUC “+++” refers to an observed NAUC>170% of positive control) |  |  |  |
| O=C(O)[C@H]1[C@@H](C(=O)N(CCO)c2cc(Cl)cc(Cl)c2)[C@H]2CC(F)(F)CN2[C@]12C(=O)Nc1c(Cl)cc(Cl)cc12 [Example 150] |  |  |  | + (NAUC “+” refers to an observed NAUC <140% of positive control) | +++ (NAUC “+++” refers to an observed NAUC>170% of positive control) |  |
| O=C(Nc1cc(Cl)cc(Cl)c1)C1C(C(F)(F)c2ccccc2C(F)(F)F)NC2(C(=O)Nc3c(Cl)cc(Cl)cc32)C1C(=O)O (centres unmarked) [Example 69.b] | ++ (NAUC “++” refers to an observed NAUC 170-140% of positive control) | +++ (NAUC “+++” refers to an observed NAUC>170% of positive control) | ++ (NAUC “++” refers to an observed NAUC 170-140% of positive control) |  |  |  |
| CN(C(=O)[C@H]1[C@H]2C[C@](C)(OCc3ccccc3)CN2[C@]2(C(=O)Nc3c(Cl)cc(Cl)cc32)[C@H]1C(=O)O)c1cc(Cl)cc(Cl)c1 [Example 92] | ++ (NAUC “++” refers to an observed NAUC 170-140% of positive control) | +++ (NAUC “+++” refers to an observed NAUC>170% of positive control) | +++ (NAUC “+++” refers to an observed NAUC>170% of positive control) | + (NAUC “+” refers to an observed NAUC <140% of positive control) | ++ (NAUC “++” refers to an observed NAUC 170-140% of positive control) | +++ (NAUC “+++” refers to an observed NAUC>170% of positive control) |
